Experimental data: ChEMBL document CHEMBL5625170, “Design, synthesis, and biological evaluation of novel penindolone derivatives as potential inhibitors of hemagglutinin-mediated membrane fusion” (Eur J Med Chem, 2023)

System: Influenza A virus
Experiment: Anti-viral activity against Influenza A virus amantadine-resistant strain (A/Puerto Rico/8/34) infected in MDCK cells assessed as inhibition of virus cytopathic effect measured after 48 hrs by crystal violet staining based assay
Type: functional, organism-based
Conditions: A/Puerto Rico/8/34, MDCK

SMILES | IC50 [µM]
CC(=O)c1cc(C)c(O)c(Cc2[nH]c3ccccc3c2Cc2c(O)c(C)cc(C(C)=O)c2O)c1O | 25.5
CC(=O)c1cc(C)c(O)c(Cc2[nH]c3ccc(C)cc3c2Cc2c(O)c(C)cc(C(C)=O)c2O)c1O | 20.6
CC(=O)c1cc(C)c(O)c(Cc2[nH]c3ccc(-c4ccc5ncccc5c4)cc3c2Cc2c(O)c(C)cc(C(C)=O)c2O)c1O | 18.5
COc1cccc(OC)c1-c1ccc2[nH]c(Cc3c(O)c(C)cc(C(C)=O)c3O)c(Cc3c(O)c(C)cc(C(C)=O)c3O)c2c1 | 21
COc1cccc(OC)c1-c1ccc2c(Cc3c(O)c(C)cc(C(C)=O)c3O)c(Cc3c(O)c(C)cc(C(C)=O)c3O)[nH]c2c1 | 19.5
C=CCn1c(Cc2c(O)c(C)cc(C(C)=O)c2O)c(Cc2c(O)c(C)cc(C(C)=O)c2O)c2ccccc21 | > 30
CC(=O)c1cc(C)c(O)c(Cc2[nH]c3ccc(-c4cc(C(F)(F)F)cc(C(F)(F)F)c4)cc3c2Cc2c(O)c(C)cc(C(C)=O)c2O)c1O | > 30
CC(=O)c1cc(C)c(O)c(Cc2[nH]c3ccc(-c4cc(C)cc(C)c4)cc3c2Cc2c(O)c(C)cc(C(C)=O)c2O)c1O | 13.5
CC(=O)c1cc(C)c(O)c(Cc2[nH]c3cc(-c4ccc5c(c4)CCO5)ccc3c2Cc2c(O)c(C)cc(C(C)=O)c2O)c1O | > 30
COc1ccc2cc(-c3ccc4c(Cc5c(O)c(C)cc(C(C)=O)c5O)c(Cc5c(O)c(C)cc(C(C)=O)c5O)[nH]c4c3)ccc2c1 | 23.3
CC(=O)c1cc(C)c(O)c(Cc2c(Cc3c(O)c(C)cc(C(C)=O)c3O)n(Cc3ccc(Cl)cc3)c3ccccc23)c1O | > 30
CC(=O)c1cc(C)c(O)c(Cc2[nH]c3cc(-c4c5ccccc5c(-c5ccccc5)c5ccccc45)ccc3c2Cc2c(O)c(C)cc(C(C)=O)c2O)c1O | > 30
CC(=O)c1cc(C)c(O)c(Cc2[nH]c3cc(-c4cccc(F)c4)ccc3c2Cc2c(O)c(C)cc(C(C)=O)c2O)c1O | > 30
CC(=O)c1cc(C)c(O)c(Cc2[nH]c3ccc(-c4ccc(C)cc4)cc3c2Cc2c(O)c(C)cc(C(C)=O)c2O)c1O | 15.5
CC(=O)c1cc(C)c(O)c(Cc2[nH]c3cc(-c4cccc(O)c4)ccc3c2Cc2c(O)c(C)cc(C(C)=O)c2O)c1O | > 30
COc1cc(-c2ccc3c(Cc4c(O)c(C)cc(C(C)=O)c4O)c(Cc4c(O)c(C)cc(C(C)=O)c4O)[nH]c3c2)cc(OC)c1OC | 20.1
CC(=O)c1cc(C)c(O)c(Cc2[nH]c3ccc(-c4cccc(O)c4)cc3c2Cc2c(O)c(C)cc(C(C)=O)c2O)c1O | > 30
CC(=O)c1cc(C)c(O)c(Cc2[nH]c3cc(-c4ccc(Cl)cc4)ccc3c2Cc2c(O)c(C)cc(C(C)=O)c2O)c1O | > 30
CSc1ccc(-c2ccc3[nH]c(Cc4c(O)c(C)cc(C(C)=O)c4O)c(Cc4c(O)c(C)cc(C(C)=O)c4O)c3c2)cc1 | 17.5
CC(=O)c1cc(C)c(O)c(Cc2[nH]c3ccc(-c4ccccc4F)cc3c2Cc2c(O)c(C)cc(C(C)=O)c2O)c1O | > 30
COc1ccc(-c2ccc3c(Cc4c(O)c(C)cc(C(C)=O)c4O)c(Cc4c(O)c(C)cc(C(C)=O)c4O)[nH]c3c2)cc1OC | 19.7
CC(=O)c1cc(C)c(O)c(Cc2c(Cc3c(O)c(C)cc(C(C)=O)c3O)n(Cc3ccccc3)c3ccccc23)c1O | > 30
CC(=O)c1cc(C)c(O)c(Cc2[nH]c3cc(-c4cc(C(C)(C)C)cc(C(C)(C)C)c4)ccc3c2Cc2c(O)c(C)cc(C(C)=O)c2O)c1O | 26.8

SMILES | IC50 [µM]
CC(=O)c1cc(C)c(O)c(Cc2[nH]c3ccc(-c4c5ccccc5cc5ccccc45)cc3c2Cc2c(O)c(C)cc(C(C)=O)c2O)c1O | 6.7
CC(=O)c1cc(C)c(O)c(Cc2[nH]c3ccc(Br)cc3c2Cc2c(O)c(C)cc(C(C)=O)c2O)c1O | 25.2
CC(=O)c1cc(C)c(O)c(Cc2[nH]c3ccc(-c4c5ccccc5c(-c5ccccc5)c5ccccc45)cc3c2Cc2c(O)c(C)cc(C(C)=O)c2O)c1O | > 30
CC(=O)c1cc(C)c(O)c(Cc2[nH]c3cc(-c4ccccc4)ccc3c2Cc2c(O)c(C)cc(C(C)=O)c2O)c1O | 23.4
COc1ccc(Cn2c(Cc3c(O)c(C)cc(C(C)=O)c3O)c(Cc3c(O)c(C)cc(C(C)=O)c3O)c3ccccc32)cc1 | > 30
CC(=O)c1cc(C)c(O)c(Cc2[nH]c3cc(-c4ccc5ccccc5c4)ccc3c2Cc2c(O)c(C)cc(C(C)=O)c2O)c1O | 26
CC(=O)c1cc(C)c(O)c(Cc2[nH]c3ccc(-c4cc(C(C)(C)C)cc(C(C)(C)C)c4)cc3c2Cc2c(O)c(C)cc(C(C)=O)c2O)c1O | > 30
CC(=O)c1cc(C)c(O)c(Cc2[nH]c3cc(-c4ccc(C)cc4)ccc3c2Cc2c(O)c(C)cc(C(C)=O)c2O)c1O | 24.1
CC(=O)c1cc(C)c(O)c(Cc2[nH]c3cc(/C=C/c4ccccc4)ccc3c2Cc2c(O)c(C)cc(C(C)=O)c2O)c1O | > 30
CC(=O)c1cc(C)c(O)c(Cc2[nH]c3ccc(-c4ccc5ccccc5c4)cc3c2Cc2c(O)c(C)cc(C(C)=O)c2O)c1O | 20.7
CC(=O)c1cc(C)c(O)c(Cc2[nH]c3ccc(-c4ccc5c(c4)CCO5)cc3c2Cc2c(O)c(C)cc(C(C)=O)c2O)c1O | > 30
CC(=O)c1cc(C)c(O)c(Cc2[nH]c3cc(-c4ccc5cccnc5c4)ccc3c2Cc2c(O)c(C)cc(C(C)=O)c2O)c1O | > 30
CC(=O)c1cc(C)c(O)c(Cc2[nH]c3cc(-c4cc(C(F)(F)F)cc(C(F)(F)F)c4)ccc3c2Cc2c(O)c(C)cc(C(C)=O)c2O)c1O | > 30
COc1ccc(-c2ccc3[nH]c(Cc4c(O)c(C)cc(C(C)=O)c4O)c(Cc4c(O)c(C)cc(C(C)=O)c4O)c3c2)cc1 | 16.3
CC(=O)c1cc(C)c(O)c(Cc2[nH]c3cc(-c4ccsc4)ccc3c2Cc2c(O)c(C)cc(C(C)=O)c2O)c1O | > 30
COc1ccc2[nH]c(Cc3c(O)c(C)cc(C(C)=O)c3O)c(Cc3c(O)c(C)cc(C(C)=O)c3O)c2c1 | 15.9
CC(=O)c1cc(C)c(O)c(Cc2[nH]c3ccc(-c4ccc(C(F)(F)F)cc4)cc3c2Cc2c(O)c(C)cc(C(C)=O)c2O)c1O | 21.9
CC(=O)c1cc(C)c(O)c(Cc2c(Cc3c(O)c(C)cc(C(C)=O)c3O)n(N)c3ccccc23)c1O | > 30
CC(=O)c1cc(C)c(O)c(Cc2[nH]c3cc(-c4ccc(F)cc4)ccc3c2Cc2c(O)c(C)cc(C(C)=O)c2O)c1O | 20.6
CC(=O)c1cc(C)c(O)c(Cc2[nH]c3ccc(-c4csc5ccccc45)cc3c2Cc2c(O)c(C)cc(C(C)=O)c2O)c1O | 23.4
CC(=O)c1cc(C)c(O)c(Cc2[nH]c3cc(-c4c5ccccc5cc5ccccc45)ccc3c2Cc2c(O)c(C)cc(C(C)=O)c2O)c1O | 8.3
CSc1ccc(-c2ccc3c(Cc4c(O)c(C)cc(C(C)=O)c4O)c(Cc4c(O)c(C)cc(C(C)=O)c4O)[nH]c3c2)cc1 | 9.1
CC(=O)c1cc(C)c(O)c(Cc2[nH]c3cc(-c4ccc5c(c4)OCCO5)ccc3c2Cc2c(O)c(C)cc(C(C)=O)c2O)c1O | 9.1

SMILES | IC50 [µM]
CC(=O)c1cc(C)c(O)c(Cc2[nH]c3cc(-c4ccccc4F)ccc3c2Cc2c(O)c(C)cc(C(C)=O)c2O)c1O | > 30
COc1ccc2cc(-c3ccc4[nH]c(Cc5c(O)c(C)cc(C(C)=O)c5O)c(Cc5c(O)c(C)cc(C(C)=O)c5O)c4c3)ccc2c1 | 21.2
COc1ccc(-c2ccc3[nH]c(Cc4c(O)c(C)cc(C(C)=O)c4O)c(Cc4c(O)c(C)cc(C(C)=O)c4O)c3c2)cc1OC | 18.1
CC(=O)c1cc(C)c(O)c(Cc2[nH]c3ccc(Cl)cc3c2Cc2c(O)c(C)cc(C(C)=O)c2O)c1O | > 30
CC(=O)c1cc(C)c(O)c(Cc2[nH]c3ccc(-c4ccc(Cl)cc4)cc3c2Cc2c(O)c(C)cc(C(C)=O)c2O)c1O | 27
CC(=O)c1cc(C)c(O)c(Cc2[nH]c3cc(C)ccc3c2Cc2c(O)c(C)cc(C(C)=O)c2O)c1O | 15.1
CC(=O)c1cc(C)c(O)c(Cc2[nH]c3cc(-c4csc5ccccc45)ccc3c2Cc2c(O)c(C)cc(C(C)=O)c2O)c1O | 20.9
CC(=O)c1cc(C)c(O)c(Cc2[nH]c3ccc(-c4cccc(F)c4)cc3c2Cc2c(O)c(C)cc(C(C)=O)c2O)c1O | > 30
COc1ccc(-c2ccc3c(Cc4c(O)c(C)cc(C(C)=O)c4O)c(Cc4c(O)c(C)cc(C(C)=O)c4O)[nH]c3c2)cc1 | 8.7
COc1cc(-c2ccc3[nH]c(Cc4c(O)c(C)cc(C(C)=O)c4O)c(Cc4c(O)c(C)cc(C(C)=O)c4O)c3c2)cc(OC)c1OC | 8
CC(=O)c1cc(C)c(O)c(Cc2[nH]c3ccc(F)cc3c2Cc2c(O)c(C)cc(C(C)=O)c2O)c1O | > 30
CC(=O)c1cc(C)c(O)c(Cc2[nH]c3ccc(-c4ccc(F)cc4)cc3c2Cc2c(O)c(C)cc(C(C)=O)c2O)c1O | > 30
CC(=O)c1cc(C)c(O)c(Cc2[nH]c3ccc(-c4ccc5c(c4)OCCO5)cc3c2Cc2c(O)c(C)cc(C(C)=O)c2O)c1O | 13
CC(=O)c1cc(C)c(O)c(Cc2[nH]c3ccc(-c4ccsc4)cc3c2Cc2c(O)c(C)cc(C(C)=O)c2O)c1O | > 30
CC(=O)c1cc(C)c(O)c(Cc2[nH]c3ccc(/C=C/c4ccccc4)cc3c2Cc2c(O)c(C)cc(C(C)=O)c2O)c1O | > 30
CC(=O)c1cc(C)c(O)c(Cc2c(Cc3c(O)c(C)cc(C(C)=O)c3O)n(Cc3ccc(F)cc3)c3ccccc23)c1O | > 30
COc1ccc2c(Cc3c(O)c(C)cc(C(C)=O)c3O)c(Cc3c(O)c(C)cc(C(C)=O)c3O)[nH]c2c1 | 12.6
CC(=O)c1cc(C)c(O)c(Cc2[nH]c3cc(-c4ccc(C(F)(F)F)cc4)ccc3c2Cc2c(O)c(C)cc(C(C)=O)c2O)c1O | 25
CC(=O)c1cc(C)c(O)c(Cc2[nH]c3ccc(-c4ccccc4)cc3c2Cc2c(O)c(C)cc(C(C)=O)c2O)c1O | 26
CC(=O)c1cc(C)c(O)c(Cc2[nH]c3cc(-c4cc(C)cc(C)c4)ccc3c2Cc2c(O)c(C)cc(C(C)=O)c2O)c1O | 10.1
CCOC(=O)C1=C[C@@H](OC(CC)CC)[C@H](NC(C)=O)[C@@H](N)C1 [OSELTAMIVIR] | 11.4
